Measured values as given in publication PMC12603070, “A high-throughput screening approach to discover potential colorectal cancer chemotherapeutics: repurposing drugs to identify novel disruptors of 14-3-3 proteins” (Cell Death & Disease, 2025).
Where a name gives a salt, the structure may show the parent alone. Read-outs that look alike come from different tables or passages of the source.

Assays:
[1] = molecular target: T1, 14-3-3ζ:BAD-112-136F interactions (Homo sapiens, UniProt P63104); assay: BRET sensor screen for disruption of 14-3-3ζ-Rluc8:BAD-112-136F-mCitrine in living NIH-3T3 cells; format: cell-based, murine; parameters: inhibition: dose or concentration left out as unconfirmed; BRET reduction on NIH-3T3: unit not given here; settings: for inhibition / inhibition at 20 µM: NIH3T3, 3 h, read-out: BRET reduction on NIH-3T3
T1 construct: expressed in transfected cells; host or cells: NIH-3T3 fibroblasts, bi-directional pBI-CMV1 plasmid
T1 sequence (P63104 1-245): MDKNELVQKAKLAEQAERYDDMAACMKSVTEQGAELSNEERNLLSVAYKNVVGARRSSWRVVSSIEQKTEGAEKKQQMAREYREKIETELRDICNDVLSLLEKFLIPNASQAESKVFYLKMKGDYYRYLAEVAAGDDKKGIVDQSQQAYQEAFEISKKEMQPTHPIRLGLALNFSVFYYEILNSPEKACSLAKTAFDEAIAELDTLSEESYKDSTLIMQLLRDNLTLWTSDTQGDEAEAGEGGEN
Procedure: The Z’-score, which evaluates the robustness of an HTS assay readout, was calculated according to standard protocols. For the HTS, 384-well plates were coated with 100 μg/mL poly-L-ornithine (Sigma, Missouri, United States; #P3655) overnight at 37 °C, followed by rinsing with sterilized water. NIH-3T3 cells were transfected with the BRET sensor two days prior to experimentation, followed by replating onto the pre-coated 384-well plates at a density of 20,000 cells/well. After 24 h of incubation at 37 °C, growth media was replaced by Krebs buffer (pH 7.4).

NIH-3T3 cells = assay: Hoechst/propidium iodide cell death assay in NIH-3T3; format: cell-based; settings: for cytotoxicity at 20 µM: Mus musculus, NIH3T3, 24 h, read-out: Percentage of cell death % 24h NIH3t3; for cytotoxicity at 20 µM / Percentage of cell death % 24h NIH3t3: 24 h, 20 µM
Description: (§1) A high-content imaging system (PerkinElmer; Operetta CLS), was used to quantify cell death and apoptosis by calculating the number of propidium iodide-positive cells relative to Hoechst-positive cells, and the number of Annexin V-positive cells relative to Hoechst-positive cells, respectively.

HT-29 cells = assay: Hoechst/propidium iodide cell death assay in HT-29; format: cell-based, human; settings: for cytotoxicity at 20 µM: Homo sapiens
Description: as §1

[2] = NIH-3T3 cells, hits from the primary screen
[3] = NIH-3T3 expressing BRET sensor, 20 µM, 3 h
[4] = HT-29, 24 h, 20 µM, 24 h, read-out: Percentage of cell death % 24h HT-29
[5] = HT-29, 48 h, HT-29, 48h, 20 μM, read-out: Percentage of cell death % 48h, HT-29

Molecule | inhibition [1, 2] | inhibition at 20 µM [1, 3] | cytotoxicity at 20 µM (NIH-3T3 cells) | Percentage of cell death % 48h, NIH3T3 (NIH-3T3 cells) | cytotoxicity at 20 µM (HT-29 cells; [4]) | cytotoxicity at 20 µM (HT-29 cells; [5]) | BRET reduction on NIH-3T3 [1, 2] | BRET reduction on NIH-3T3 [1, 3] | Percentage of cell death % 24h NIH3t3 (NIH-3T3 cells) | Percentage of cell death % 24h HT-29 (HT-29 cells; 20 µM, 24 h) | Percentage of cell death % 48h, HT-29 (HT-29 cells; HT-29, 48h, 20 μM)
CN(C)CCCN1c2ccccc2CCc2ccc(Cl)cc21 [Clomipramine HCl] | 27% | 27% | 7.72% | 8.7601% | 0.662% | 2.3% |  |  |  |  | 
O=C1Cc2cc(CCN3CCN(c4nsc5ccccc45)CC3)c(Cl)cc2N1 [Ziprasidone hydrochloride monohydrate] | 25.5% | 25.5% | 1.15% | 0.2764% | 1.29% | 1.87% |  |  |  |  | 
Vitamin B12 |  |  |  | 0.1179% |  |  | 36.7374 | 36.7374 | 0.2976% | 0.4615% | 1.059%
CC1(C)Cc2c(-c3ccccc3)c(-c3ccc(Cl)cc3)c(CC(=O)O)n2C1 [Licofelone] | 33% | 33% | 0.823% | 0.4583% | 2.67% | 3.98% |  |  |  |  | 
CC/C(=C(\c1ccccc1)c1ccc(OCCN(C)C)cc1)c1ccccc1 [Tamoxifen Citrate] | 51.8% | 51.8% | 76.5% | 76.3192% | 5.86% | 63.3% |  |  |  |  | 
CC/C(=C(/CC)c1ccc(O)cc1)c1ccc(O)cc1 [Diethylstilbestrol] | 28.3% | 28.3% | 11.2% | 3.653% | 0.869% | 2.76% |  |  |  |  | 
CCCCCCCCCCCCCCCC[N+](C)(C)CCN(Cc1ccc(OC)cc1)c1ncccn1 [Thonzonium Bromide] | 38.3% | 38.3% | 86.2% | 80.9399% | 94.9% | 94.7% |  |  |  |  | 
Clc1ccc(COC(Cn2ccnc2)c2ccc(Cl)cc2Cl)cc1 (centres unmarked) [Econazole nitrate] | 48.3% | 48.3% | 14.2% | 7.996% | 8.57% | 13% |  |  |  |  | 
Cc1cc(Nc2ncc(Cl)c(Nc3ccccc3S(=O)(=O)C(C)C)n2)c(OC(C)C)cc1C1CCNCC1 [LDK378] | 46.5% | 46.5% | 80.9% | 75.6563% | 92.1% | 89.8% |  |  |  |  | 
CC(C)(O)c1ccccc1CC[C@@H](SCC1(CC(=O)O)CC1)c1cccc(/C=C/c2ccc3ccc(Cl)cc3n2)c1 [Montelukast Sodium] | 30.9% | 30.9% | 14.8% | 2.7667% | 0.524% | 1.19% |  |  |  |  | 
C=C[C@@H]1C[C@]1(NC(=O)[C@@H]1C[C@@H](Oc2ncc(OC)c3ccc(Cl)cc23)CN1C(=O)[C@@H](NC(=O)OC(C)(C)C)C(C)(C)C)C(=O)NS(=O)(=O)C1CC1 [Asunaprevir (BMS-650032), Asunaprevir] | 41.4% | 41.4% | 3.04% | 2.12% | 1.15% | 3.86% |  |  |  |  | 
Clc1ccc(COC(Cn2ccnc2)c2ccc(Cl)cc2Cl)c(Cl)c1 (centres unmarked) [Miconazole] | 48.7% | 48.7% |  | 3.437% | 2.78% | 5.75% |  |  | 6.07% |  | 
C=C1/C(=C\C=C2/CCC[C@]3(C)[C@@H]([C@H](C)CCCC(C)(C)O)CC[C@@H]23)C[C@@H](O)C[C@@H]1O [Calcitriol] |  |  | 1.56% | 1.321% | 0.461% | 0.982% |  |  |  |  | 
Clc1ccc(CSC(Cn2ccnc2)c2ccc(Cl)cc2Cl)cc1 (centres unmarked) [Sulconazole Nitrate] |  |  | 10.8% | 9.7879% | 7.98% | 12.2% |  |  |  |  | 
